Laboratory results published in patent US6586633B1, “Amine derivatives” (Pola Chemical Industries, Inc., priority 2001, dated 2003).
Where two headings read alike, the source gives them in different places.

Experiments:
Test in all cases: Measurement of antifungal activity (minimum inhibitory concentration), agar dilution
Type in all cases: cell-based
M. canis TIMM0760 = conditions: Sabouraud's agar, one week at 27° C.; for MIC: Microsporum canis, 168 h, read-out: MIC value (minimum compound concentration that definitely inhibited any visible growth)
Method: (§1) Measurement of Antifungal Activity (Measurement of Minimum Inhibitory Concentration)
(§2) Antifungal activity of representative compounds of the present invention against dermatophytes was investigated.
(§3) Briefly, strains of dermatophytes to be tested were grown on slant media prepared with Sabouraud's agar (product of Nissuiseiyaku; pepton 1.0%, glucose 4.0%, agar 1.5%, pH 5.9) at 27° C. for two weeks, so as to allow sufficient production of conidiospores. Subsequently, sterilized saline solution containing 0.05% (wt/vol) TWEEN 80 was added thereto, and while the surface of the each medium was scraped with a platinum loop, the conidiospores were deaggregated and suspended in the saline solution. The suspension was filtered through a double face sterilized gauze sheet so as to remove agar and hypha pellets. The filtrate was diluted with a saline solution so as to make the concentration of the conidiospores decrease to 10^6/ml by use of a cytometer, and the resultant dilute filtrate served as a test dermatophytes solution. Meanwhile, a stock solution was prepared by adding 1 ml of dimethylsulfoxide to 10 mg of a compound to be tested. An aliquot (500 μl) of the stock solution was combined with dimethylsulfoxide (500 μl), to thereby prepare a 2-fold dilute solution. Dilution was similarly repeated until 13 different dilute solutions ranging from 10 to 0.0025 mg/ml (concentrations of the ultimate test system: 100-0.025 μg/ml) were obtained. 100 μl each of the diluted solutions of the test compound was dispensed into the sterilized petri dish. A Sabouraud's agar (pepton 1.0%, glucose 4.0%, agar 1.5%, pH 5.9; 10 ml), which had been sterilized and dissolved, was added thereto, and the mixture was thoroughly mixed and solidified. Next, the above-prepared test dermatophytes solution was planted in amounts of 5 μl by use of a microplanter.

M. gypseum IF08231 = conditions: Sabouraud's agar, one week at 27° C.; for MIC: Nannizzia gypsea, 168 h, read-out: MIC value (minimum compound concentration that definitely inhibited any visible growth)
Method: as §1, §2, §3

[1] = tested on: T. mentagrophytes IF05811; conditions: Sabouraud's agar, one week at 27° C.; for MIC: Trichophyton mentagrophytes, 168 h, read-out: MIC value (minimum compound concentration that definitely inhibited any visible growth)
Method: as §1, §2, §3

[2] = tested on: T. mentagrophytes IF07552; conditions: Sabouraud's agar, one week at 27° C.; for MIC: Trichophyton mentagrophytes, 168 h, read-out: MIC value (minimum compound concentration that definitely inhibited any visible growth)
Method: as §1, §2, §3

[3] = tested on: T. mentagrophytes TIMM1177; conditions: Sabouraud's agar, one week at 27° C.; for MIC: Trichophyton mentagrophytes, 168 h, read-out: MIC value (minimum compound concentration that definitely inhibited any visible growth)
Method: as §1, §2, §3

[4] = tested on: T. mentagrophytes TIMM1189; conditions: Sabouraud's agar, one week at 27° C.; for MIC: Trichophyton mentagrophytes, 168 h, read-out: MIC value (minimum compound concentration that definitely inhibited any visible growth)
Method: as §1, §2, §3

T. rubrum IF05808 = conditions: Sabouraud's agar, one week at 27° C.; for MIC: Trichophyton rubrum, 168 h, read-out: MIC value (minimum compound concentration that definitely inhibited any visible growth)
Method: as §1, §2, §3

T. rubrum IF09185 = conditions: Sabouraud's agar, one week at 27° C.; for MIC: Trichophyton rubrum, 168 h, read-out: MIC value (minimum compound concentration that definitely inhibited any visible growth)
Method: as §1, §2, §3

T. violaceum TIMM1264 = conditions: Sabouraud's agar, one week at 27° C.; for MIC: Trichophyton violaceum, 168 h, read-out: MIC value (minimum compound concentration that definitely inhibited any visible growth)
Method: as §1, §2, §3

SMILES	MIC (M. canis TIMM0760) [µg/mL]	MIC (M. gypseum IF08231; M. gypseum IF08231 (Table 2)) [µg/mL]	MIC [1] [µg/mL]	MIC [2] [µg/mL]	MIC [3] [µg/mL]	MIC [4] [µg/mL]	MIC (T. rubrum IF05808) [µg/mL]	MIC (T. rubrum IF09185) [µg/mL]	MIC (T. violaceum TIMM1264) [µg/mL]	MIC (M. gypseum IF08231; H. gypseum IF08231 (Table 1)) [µg/mL]	MIC value (minimum compound concentration that definitely inhibited any visible growth) (M. canis TIMM0760) [µg/mL]	MIC value (minimum compound concentration that definitely inhibited any visible growth) (M. gypseum IF08231; M. gypseum IF08231 (Table 2)) [µg/mL]	MIC value (minimum compound concentration that definitely inhibited any visible growth) [1] [µg/mL]	MIC value (minimum compound concentration that definitely inhibited any visible growth) [2] [µg/mL]	MIC value (minimum compound concentration that definitely inhibited any visible growth) [3] [µg/mL]	MIC value (minimum compound concentration that definitely inhibited any visible growth) [4] [µg/mL]	MIC value (minimum compound concentration that definitely inhibited any visible growth) (T. rubrum IF05808) [µg/mL]	MIC value (minimum compound concentration that definitely inhibited any visible growth) (T. rubrum IF09185) [µg/mL]	MIC value (minimum compound concentration that definitely inhibited any visible growth) (T. violaceum TIMM1264) [µg/mL]
C=C(C)c1cc(CN(C)Cc2ccc(C(C)(C)C)cc2)ccc1C.Cl [Compound 126, N-(4-tert-Butylbenzyl)-N-methyl-(3-isopropenyl-4-methylbenzyl)amine Hydrochloride]	1.56	6.25	12.5	3.12	12.5	3.12	3.12	3.12	3.12	–	–	–	–	–	–	–	–	–	–
C=C(C)c1cccc(CN(C)CC=Cc2ccccc2)c1.Cl [Compound 48, N-Cinnamyl-N-methyl-(3-isopropenylbenzyl)amine Hydrochloride]	1.56	–	6.25	3.12	6.25	6.25	1.56	1.56	6.25	6.25	–	–	–	–	–	–	–	–	–
C=C(C)c1cc(CN(C)C/C=C/C#CC(C)(C)C)ccc1C.Cl [Compound 74, trans-N-(6,6-Dimethyl-2-hepten-4-ynyl)-N-methyl-(3-isopropenyl-4-methylbenzyl)amine Hydrochloride]	1.56	–	6.25	12.5	12.5	6.25	1.56	3.12	6.25	12.5	–	–	–	–	–	–	–	–	–
C=C(C)c1cccc(CN(C)Cc2ccc(C(C)(C)C)cc2)c1.Cl [Compound 77, N-(4-tert-Butylbenzyl)-N-methyl-(3-isopropenylbenzyl)amine Hydrochloride]	0.2	0.39	0.39	0.1	0.2	0.2	0.1	0.1	0.2	–	–	–	–	–	–	–	–	–	–
C/C=C(/C)c1cccc(CN(C)Cc2ccc(C(C)(C)C)cc2)c1.Cl [Compound 97, cis-N-(4-tert-Butylbenzyl)-N-methyl-[3-(1-methyl-1-propenyl)benzyl]amine Hydrochloride]	–	–	–	–	–	–	–	–	–	–	0.39	3.12	1.56	3.12	1.56	0.78	1.56	0.78	1.56
C=Cc1cccc(CN(C)C/C=C/C#CC(C)(C)C)c1.Cl [Compound 10, trans-N-(6,6-Dimethyl-2-hepten-4-ynyl)-N-methyl-(3-vinylbenzyl)amine Hydrochloride]	0.2	–	0.39	0.39	0.39	0.39	0.39	0.39	0.78	0.78	–	–	–	–	–	–	–	–	–
C=C(C)c1ccccc1CN(C)Cc1ccc(C(C)(C)C)cc1.Cl [Compound 108, N-(4-tert-Butylbenzyl)-N-methyl-(2-isopropenylbenzyl)amine Hydrochloride]	1.56	1.56	1.56	1.56	3.12	1.56	0.78	0.78	3.12	–	–	–	–	–	–	–	–	–	–
C=C(C)c1cccc(CN(CC)Cc2ccc(C(C)(C)C)cc2)c1.Cl [Compound 114, N-(4-tert-Butylbenzyl)-N-ethyl-(3-isopropenylbenzyl)amine Hydrochloride]	0.2	0.2	0.78	0.39	0.39	0.39	0.2	0.2	0.39	–	–	–	–	–	–	–	–	–	–
C=C(C)c1cccc(CN(C)C/C=C/C#CC(C)(C)C)c1C.Cl [Compound 52, trans-N-(6,6-Dimethyl-2-hepten-4-ynyl)-N-methyl-(3-isopropenyl-2-methylbenzyl)amine Hydrochloride]	–	–	12.5	12.5	12.5	12.5	12.5	12.5	12.5	3.12	–	–	–	–	–	–	–	–	–
C=Cc1cccc(CN(C)Cc2ccc(C(C)(C)C)cc2)c1.Cl [Compound 81, N-(4-tert-Butylbenzyl)-N-methyl-(3-vinylbenzyl)amine Hydrochloride]	0.2	0.39	0.39	0.39	0.39	0.78	0.2	0.39	0.78	–	–	–	–	–	–	–	–	–	–

The remaining compounds from weak to strong by MIC [1], led by results:

MIC (M. canis TIMM0760) [µg/mL]	MIC (M. gypseum IF08231; M. gypseum IF08231 (Table 2)) [µg/mL]	MIC [1] [µg/mL]	MIC [2] [µg/mL]	MIC [3] [µg/mL]	MIC [4] [µg/mL]	MIC (T. rubrum IF05808) [µg/mL]	MIC (T. rubrum IF09185) [µg/mL]	MIC (T. violaceum TIMM1264) [µg/mL]	MIC (M. gypseum IF08231; H. gypseum IF08231 (Table 1)) [µg/mL]	MIC value (minimum compound concentration that definitely inhibited any visible growth) (M. canis TIMM0760) [µg/mL]	MIC value (minimum compound concentration that definitely inhibited any visible growth) (M. gypseum IF08231; M. gypseum IF08231 (Table 2)) [µg/mL]	MIC value (minimum compound concentration that definitely inhibited any visible growth) [1] [µg/mL]	MIC value (minimum compound concentration that definitely inhibited any visible growth) [2] [µg/mL]	MIC value (minimum compound concentration that definitely inhibited any visible growth) [3] [µg/mL]	MIC value (minimum compound concentration that definitely inhibited any visible growth) [4] [µg/mL]	MIC value (minimum compound concentration that definitely inhibited any visible growth) (T. rubrum IF05808) [µg/mL]	MIC value (minimum compound concentration that definitely inhibited any visible growth) (T. rubrum IF09185) [µg/mL]	MIC value (minimum compound concentration that definitely inhibited any visible growth) (T. violaceum TIMM1264) [µg/mL]	SMILES
0.2	–	0.39	0.39	0.78	0.39	0.39	0.2	0.39	0.78	–	–	–	–	–	–	–	–	–	CC(C)=Cc1cccc(CN(C)C/C=C/C#CC(C)(C)C)c1.Cl [Compound 12, trans-N-(6,6-Dimethyl-2-hepten-4-ynyl)-N-methyl-[3-(2-methyl-1-propenyl)benzyl]amine Hydrochloride]
0.1	0.2	0.1	0.1	0.2	0.1	0.05	0.1	0.1	–	–	–	–	–	–	–	–	–	–	C=C(C)c1cc(F)cc(CN(C)Cc2ccc(C(C)(C)C)cc2)c1.Cl [Compound 101, N-(4-tert-Butylbenzyl)-N-methyl-(3-fluoro-5-isopropenylbenzyl)amine Hydrochloride]
0.1	–	0.1	0.2	0.1	0.2	0.1	0.1	0.1	0.39	–	–	–	–	–	–	–	–	–	C=C(C)c1cccc(CN(C)C/C=C/C#CC(C)(C)C)c1.Cl [Compound 3, trans-N-(6,6-Dimethyl-2-hepten-4-ynyl)-N-methyl-(3-isopropenylbenzyl)amine Hydrochloride]
0.2	–	0.1	0.1	0.1	0.1	0.1	0.1	0.2	0.39	–	–	–	–	–	–	–	–	–	C=C(C)c1cc(F)cc(CN(C)C/C=C/C#CC(C)(C)C)c1.Cl [Compound 64, trans-N-(6,6-Dimethyl-2-hepten-4-ynyl)-N-methyl-(3-fluoro-5-isopropenylbenzyl)amine Hydrochloride]
0.1	–	0.1	0.05	0.1	0.05	0.1	0.1	0.1	0.2	–	–	–	–	–	–	–	–	–	C=C(C)c1cc(C)cc(CN(C)C/C=C/C#CC(C)(C)C)c1.Cl [Compound 19, trans-N-(6,6-Dimethyl-2-hepten-4-ynyl)-N-methyl-(3-isopropenyl-5-methylbenzyl)amine Hydrochloride]
0.05	0.1	0.1	0.05	0.1	0.05	0.05	0.05	0.1	–	–	–	–	–	–	–	–	–	–	C=C(C)c1cc(C)cc(CN(C)Cc2ccc(C(C)(C)C)cc2)c1.Cl [Compound 88, N-(4-tert-Butylbenzyl)-N-methyl-(3-isopropenyl-5-methylbenzyl)amine hydrochloride]
